Like-named read-outs stand apart in the source and are kept apart here.
Assays:
[1] = system: E. coli DSM 1116; test: Qualitative growth inhibition assay in presence of AlbAS; type: cell-based, Escherichia coli; conditions: for GIA: E. coli inhibition +AlbA: E. coli DSM 1116, 10 µM compound with equimolar AlbAS; for bioactivity in presence of AlbAS (in words): E. coli, equimolar purified AlbAS
Experimental: Finally, we investigated if synthetic variations of building block A are able to evade the effects of the resistance protein AlbA. Therefore, we carried out a qualitative growth inhibition assay with derivatives 4–24 in presence of an equimolar amount of purified AlbAS. After incubation of the cultures overnight, the growth of the bacteria was evaluated. The ability of AlbAS to sufficiently sequester an albicidin derivative from the supernatant allowed E. coli cells to accumulate in a visible cell pellet. Second, we performed a quantitative transcription‐activation reporter assay[22] to assess transcriptional regulation by AlbAL. The promoter sequence pAlbA was inserted into a reporter vector that encodes the ilux luminescence cassette.[22] The luminescence signals elicited by ligand binding of synthetic variations to AlbAL was compared and normalized to the signal induced by 2nd Gen albicidin 2 and are hereby referred to as relative transcription activation (TA^%). The combination of both assays prompted us to categorize the experimental outcomes (Figure 4) in four groups:
Figure 4 Characterization of AlbA resistance against derivatives 2, 4–24. GIA: Qualitative growth inhibition assay against E. coli DSM 1116. (−): Derivative unable to inhibit the growth of E. coli in presence of AlbAS. (+): Derivative inhibits growth of E. coli in presence of AlbAS. […] For details see SI Figure 9. Transcription activation (TA) assay: luminescence elicited by 2nd Gen albicidin 2 from the TA assay was normalized to 100 % and the luminescence signal of tested derivatives provided: relative luminescence [%]=luminescence [derivative]/luminescence [2]×100 %. Green bars indicate low relative luminescence (<40 %) and red bars indicate high relative luminescence (>50 %). Error bars show the standard deviations of triplicate measurements. TEXT PRINTED IN THE PICTURE: 2: E. coli inhibition +AlbA: − | 4: E. coli inhibition +AlbA: + | 9: E. coli inhibition +AlbA: + | 11: E. coli inhibition +AlbA: + | 12: E. coli inhibition +AlbA: + | 13: E. coli inhibition +AlbA: ~ | 14: E. coli inhibition +AlbA: − | 16: E. coli inhibition +AlbA: − | 17: E. coli inhibition +AlbA: − | 18: E. coli inhibition +AlbA: − | 19: E. coli inhibition +AlbA: − | 20: E. coli inhibition +AlbA: + | 21: E. coli inhibition +AlbA: − | 22: E. coli inhibition +AlbA: − | 23: E. coli inhibition +AlbA: − | 24: E. coli inhibition +AlbA: − […]
1.3 Resistance assessment against AlbA
E. coli strain DSM 1116 was used for all susceptibility testing. E. coli BL21 Star (DE3) cells (Invitrogen) were used for protein expression. LB medium (Lysogeny broth: 10 g/L peptone, 5 g/L yeast extract, 5 g/L NaCl) was used as broth or in agar plates for all experiments. Incubation steps took place at 37°C and 180 rpm shaking if not stated otherwise. Throughout the study, 2nd Gen albicidin 2 was used as albicidin standard due to its better stability, availability and similar activity compared to natural albicidin in presence of resistance factors.[3,4]
AlbA expression and purification
N-terminally His-tagged AlbA was expressed using a pET28a vector as described previously.[5] In brief, E. coli BL21(DE3) cells were transformed with pET28-AlbA plasmid and grown in LB medium with kanamycin. LB broth supplemented with 50 µg/mL kanamycin was inoculated from over-night cultures and grown at 37°C until an OD600 of 0.6 was reached. After induction with 0.2 mM isopropyl β-D-1-thiogalactopyranoside (IPTG) the proteins were expressed at 18°C for 20 h. The cells were harvested by centrifugation (4,000 x G, 20 min), resuspended in lysis buffer (50 mM Tris, pH 8.0, 500 mM NaCl, 10% glycerol) and processed in a cell disruptor (Constant Systems Ltd) at 25 kPsi before centrifugation at 50,000 x G, at 4°C for 45 min. The lysate was incubated with Pure Cube Ni-NTA agarose (Cube Biotech, Germany) at 4°C for 20 min while shaking. The slurry was transferred to empty gravity-flow […]

[2] = system: E. coli; test: MIC against E. coli in presence of 50 % human serum; type: cell-based; conditions: Escherichia coli, read-out: MICEc 50%HS
[3] = E. coli in presence of 50 % human serum

| Structure (SMILES) | GIA: E. coli inhibition +AlbA [1] | bioactivity in presence of AlbAS (in words) [1] | MIC [2, 3] | MIC [2] |
| --- | --- | --- | --- | --- |
| COc1c(NC(=O)c2ccc(NC(=O)c3ccc(NC(=O)[C@H](Cc4c[nH]nn4)NC(=O)c4ccc(NC(=O)c5ccc(C#N)cc5)cc4)cn3)c(OC)c2O)ccc(C(=O)O)c1O [compound 4] | + | has bioactivity | 1 µg/mL |  |
| COc1c(NC(=O)c2ccc(NC(=O)c3ccc(NC(=O)[C@H](Cc4c[nH]nn4)NC(=O)c4ccc(NC(=O)[C@@H](C)Oc5ccc(O)cc5)cc4)cn3)c(OC)c2O)ccc(C(=O)O)c1O [compound 9] | + | has bioactivity | ≥ 8 µg/mL |  |
| COc1c(NC(=O)c2ccc(NC(=O)c3ccc(NC(=O)[C@H](Cc4c[nH]nn4)NC(=O)c4ccc(NC(=O)c5ccc6ccccc6n5)cc4)cn3)c(OC)c2O)ccc(C(=O)O)c1O [compound 11] | + | highly bioactive | 2 µg/mL |  |
| COc1c(NC(=O)c2ccc(NC(=O)c3ccc(NC(=O)[C@H](Cc4c[nH]nn4)NC(=O)c4ccc(NC(=O)c5cc6ccccc6cn5)cc4)cn3)c(OC)c2O)ccc(C(=O)O)c1O [compound 12] | + | highly bioactive |  | 1 µg/mL |
| COc1c(NC(=O)c2ccc(NC(=O)c3ccc(NC(=O)[C@H](Cc4c[nH]nn4)NC(=O)c4ccc(NC(=O)c5cnc6ccccc6c5)cc4)cn3)c(OC)c2O)ccc(C(=O)O)c1O [compound 13] |  | has bioactivity |  |  |
| COc1c(NC(=O)c2ccc(NC(=O)c3ccc(NC(=O)[C@H](Cc4c[nH]nn4)NC(=O)c4ccc(NC(=O)c5ccc6ncccc6c5)cc4)cn3)c(OC)c2O)ccc(C(=O)O)c1O [compound 14] | − | deactivated | 4 µg/mL |  |
| COc1c(NC(=O)c2ccc(NC(=O)c3ccc(NC(=O)[C@H](Cc4c[nH]nn4)NC(=O)c4ccc(NC(=O)c5ccc6nc(C)ccc6c5)cc4)cn3)c(OC)c2O)ccc(C(=O)O)c1O [compound 16] | − | deactivated |  |  |
| COc1c(NC(=O)c2ccc(NC(=O)c3ccc(NC(=O)[C@H](Cc4c[nH]nn4)NC(=O)c4ccc(NC(=O)c5c[nH]c6ccccc6c5=O)cc4)cn3)c(OC)c2O)ccc(C(=O)O)c1O [compound 17] | − | deactivated |  |  |
| CCn1cc(C(=O)Nc2ccc(C(=O)N[C@@H](Cc3c[nH]nn3)C(=O)Nc3ccc(C(=O)Nc4ccc(C(=O)Nc5ccc(C(=O)O)c(O)c5OC)c(O)c4OC)nc3)cc2)c(=O)c2ccc(C)nc21 [compound 18] | − | deactivated | 8 µg/mL |  |
| CCn1cc(C(=O)Nc2ccc(C(=O)N[C@@H](Cc3c[nH]nn3)C(=O)Nc3ccc(C(=O)Nc4ccc(C(=O)Nc5ccc(C(=O)O)c(O)c5OC)c(O)c4OC)nc3)cc2)c(=O)c2cc3c(cc21)OCO3 [compound 19] | − | deactivated |  |  |
| COc1c(NC(=O)c2ccc(NC(=O)c3ccc(NC(=O)[C@H](Cc4c[nH]nn4)NC(=O)c4ccc(NC(=O)c5cc(=O)c6cc(F)ccc6o5)cc4)cn3)c(OC)c2O)ccc(C(=O)O)c1O [compound 20] | + | highly bioactive | 8 µg/mL |  |
| COc1c(NC(=O)c2ccc(NC(=O)c3ccc(NC(=O)[C@H](Cc4c[nH]nn4)NC(=O)c4ccc(NC(=O)c5cc6cc(O)ccc6[nH]5)cc4)cn3)c(OC)c2O)ccc(C(=O)O)c1O [compound 21] | − | deactivated | ≥ 8 µg/mL |  |
| COc1c(NC(=O)c2ccc(NC(=O)c3ccc(NC(=O)[C@H](Cc4c[nH]nn4)NC(=O)c4ccc(NC(=O)c5ccc6ncsc6c5)cc4)cn3)c(OC)c2O)ccc(C(=O)O)c1O [compound 22] | − | deactivated | 0.5 µg/mL |  |
| COc1c(NC(=O)c2ccc(NC(=O)c3ccc(NC(=O)[C@H](Cc4c[nH]nn4)NC(=O)c4ccc(NC(=O)c5ccc6nc[nH]c6c5)cc4)cn3)c(OC)c2O)ccc(C(=O)O)c1O [compound 23] | − | deactivated | ≥ 8 µg/mL |  |
| COc1c(NC(=O)c2ccc(NC(=O)c3ccc(NC(=O)[C@H](Cc4c[nH]nn4)NC(=O)c4ccc(NC(=O)c5ccc6nn[nH]c6c5)cc4)cn3)c(OC)c2O)ccc(C(=O)O)c1O [compound 24] | − | deactivated | 2 µg/mL |  |

Source: article PMC11979685, “Synthesis of Derivatives of the Antibiotic Albicidin: The N‐Terminal Fragment as Key to Control Potency and Resistance Mediated by the Binding Protein AlbA” (Chemistry (Weinheim an Der Bergstrasse, Germany), 2025)
